Measured values published in patent US20100137344A1, “INDUCTION OF ANALGESIA IN NEUROPATHIC PAIN” (University Court of the University of Edinburgh, priority 2006, published 2010).

Columns and labels:
Type in all cases: in vivo, rat
[1] = system: rats with chronic constriction injury (CCI) to sciatic nerve; test: Topical application to paws of CCI rats, behavioural reflex testing (thermal PWL, mechanical PWT); conditions: for reversal of sensitised responses: topical, (−)-menthol 4 mM, isomenthol and (+)-menthol 8 mM and 16 mM; for analgesia, thermal hyperalgesia (Hargreaves' test): 30 μM topical, CCI model
Method: (§1) Pain models were generated under halothane anaesthesia (Zeneca, Cheshire, UK). For the chronic constriction injury (CCI) model of neuropathic pain, four ligatures were tied loosely to constrict the sciatic nerve at mid-thigh level (as described previously^[39]). An inflammatory pain model was generated by injecting 100 μl of Complete Freund's Adjuvant (CFA, Sigma-Aldrich Ltd) into the ventral surface of the right hindpaw^[39]. A model of peripheral demyelination-induced pain was produced by focal application of lysolecithin to the sciatic nerve^[40]. Peak behavioural sensitisation was observed post-surgically between days 10-16 for CCI, 1-3 for CFA, and 7-14 for lysolecithin, when pharmacological and electrophysiological experiments and tissue removal were conducted.
(§2) Thermal sensitivity was assessed by measuring paw withdrawal latency (PWL, s) in response to a noxious thermal stimulus (Hargreaves' thermal stimulator, Linton Instrumentation, Diss, UK) directed to the hindpaw mid-plantar glabrous surface. Mechanical sensitivity was recorded as the paw withdrawal threshold (PWT, mN/mm^2) to calibrated von Frey filaments (Stoelting, Ill., US), as previously described^[39]. Sensitivity to noxious cold was assessed by placing animals in a waterbath with an aluminium floor containing 1 cm deep 4° C. water and counting the time the paw was held suspended over a 20 s period.
Icilin was applied at concentrations of 2.5-500 μM (in water with 0.2% DMF), by placing CCI or naïve rats unrestrained for 5 min in a 1 cm deep waterbath (sufficient to cover paws), which was thermostatically controlled to a temperature of 30° C., or by very lightly anaesthetising rats and immersing hindpaws in small tubes containing 5 ml icilin (500 μM-5 mM, with a vehicle of 45% dimethylformamide in 0.2% aqueous Tween 80) for 5 min, followed by sensory testing for 60-80 mins. The effects of (−)-menthol and its stereoisomers isomenthol (1S,2R,5R-menthol,) and (+)-menthol (1S,2R,5S(+)-menthol) (4-16 mM in 80% ethanol) were also assessed. Relevant vehicles were always assessed in similar experiments. As a contrast, the effect of cinnamaldehyde (1.5 mM in water) and the effect of cinnamaldehyde with additional icilin (80 μM in water with 0.2% DMF) were assessed in naïve animals. The effects of icilin (80 μM) were further assessed in CCI animals that had undergone antisense and mis-sense treatment for knockdown of TRPM8 or immediately following intrathecal injection of either LY 341495 or UBP 1112. […] The effects of brief paw immersion at different temperatures (10-22° C. for 5 min) on CCI rats were assessed by mechanical testing. The effects of intrathecal LY 341495 or UBP 1112 on the reversal of ipsilateral sensitisation in CCI following a 16° C. cool challenge for 5 min were measured. Reflex testing commenced 5 minutes following challenge, unless animals had been anaesthetised, in which case 15 minutes was allowed for recovery. Six replicate animals were tested in all pharmacological experiments.
Antisense and mis-sense oligonucleotides were 22-mers with phosphorothioate bonds at the last two positions at 5′ and 3′ ends (MWG Biotech, Ebersberg, Germany). Antisense extended from base −10 to base +12 relative to the start of the open reading frame for the rat TRPM8 gene: 5′ C*T*CGAAGGACATCTTGCCGT*G*G 3′, where * represents phosphorothioate linkages. Mis-sense was designed with 4 inversions of C/G or A/T as appropriate at residues 3, 11, 14 and 22, preserving overall G/C content. BLAST searches of both oligonucleotides indicated no significant complementarity to any known gene sequence. 14-day or 7-day osmotic minipumps (for CCI experiments or naïve electrophysiology experiments respectively—Alzet Minipump, models 2002, 2001; Charles River, UK) containing oligonucleotides (1 μg/μl in sterile saline) were connected to canulae inserted under the dura of the spinal cord to level L5/6 and produced a predicted infusion rate of 0.5 μl/h. […]

[2] = system: rats with chronic constriction injury (CCI) to sciatic nerve; test: Intrathecal application in CCI rats, behavioural reflex testing (PWL, PWT); conditions: for effect on contralateral responses / reversal of mechanical reflex sensitisation ipsilateral to CCI / reversal of thermal reflex sensitisation ipsilateral to CCI: 2R,4R-APDC 15 nmol, ACPT-III and AP-4 150 nmol each; for reversal of mechanical reflex sensitisation ipsilateral to CCI / reversal of thermal reflex sensitisation ipsilateral to CCI: 15-30 min post-injection
Method: as §1, §2
(§3) The following drugs were applied intrathecally in a 50 μl volume of saline-based vehicle at 37° C.: icilin (2.5-200 μM in saline with 0.2% dimethylformamide, DMF), LY 341495 (100 μM in saline), UBP 1112 (200 μM in saline), 2R,4R-APDC ((2R, 4R)-4-aminopyrrolidine-2,4-dicarboxylate), 300 μM in saline), ACPT-III ((1R,3R,4S)-1-aminocyclopentane-1,3,4-tricarboxylic acid), 3 mM in saline), AP-4, ((L-(1)-2-amino-4-phosphonobutyric acid), 3 mM in saline), naloxone (0.5 mM in saline), NMDA (75 μM in saline) and ACPC (1-aminocyclopropanecarboxylic acid, 15 μM in saline) (Tocris Cookson, Bristol, UK), (−)-menthol (1R,2S,5R-(−)-menthol, 4 mM in saline), cinnamaldehyde (1.5 mM in saline) and Ruthenium Red (5 μM in saline) (Sigma-Aldrich Co. Ltd, UK) and allicin (0.5 mM in saline with 0.5% DMF) and diallyl disulphide (DADS, 1 mM in saline with 0.5% DMF) (LKT Laboratories Inc., St Paul, Minn., USA). Drugs were injected into the L5/6 intrathecal space under brief halothane anaesthesia, using a 25-gauge needle microsyringe (BD Biosciences, Oxford, UK), as described previously^[39] in animals that were at peak levels of behavioural sensitisation. Behavioural reflex testing commenced 15 min following injection to allow recovery from anaesthesia^[40,41,42] and continued every 5 min thereafter until readings returned to baseline levels (n=6 in each case). We, and others^[40,41,42] find complete recovery from anaesthetic by 15 minutes. All appropriate controls were carried out to eliminate the possibility of effects due to vehicle or to injection procedure.
(§4) The TRPM8 channel activators, icilin and (−)-menthol were tested in CCI and naïve animals. The effects of icilin were additionally assessed in animals with CFA-induced inflammation or with lysolecithin-induced demyelination. Icilin was also co-administered with the μ-opioid receptor antagonist naloxone, the Group II metabotropic glutamate receptor (mGluR) antagonist, LY 341495, or the Group III mGluR antagonist, UBP 1112. The effects of these antagonists alone as well as effects of the Group II mGluR agonist, 2R,4R-APDC and the Group III mGluR agonists, ACPT-III and AP-4, were assessed in CCI animals. The TRPA1 channel activator, cinnamaldehyde, alone and with icilin, was tested in CCI animals and in naïve animals. Further TRPA1 channel activators, allicin and diallyl disulphide were assessed in naïve animals. Both icilin and cinnamaldehyde effects in CCI animals were also investigated in the additional presence of Ruthenium Red.

[3] = system: naïve rats; test: Intrathecal application in naïve rats, behavioural reflex testing (PWL, PWT); conditions: naïve animals, cinnamaldehyde 75 nmol, allicin 25 nmol, diallyl disulphide 50 mmol
Method: as §2, §3, §4

[4] = system: saphenous nerve afferents; test: Saphenous nerve afferent recordings after topical application to receptive field; conditions: resiniferatoxin 1 mM; for firing frequency after drug / increase in firing frequency: topical icilin 200 μM
Excerpt: Antisense and mis-sense oligonucleotides were 22-mers with phosphorothioate bonds at the last two positions at 5′ and 3′ ends (MWG Biotech, Ebersberg, Germany). Antisense extended from base −10 to base +12 relative to the start of the open reading frame for the rat TRPM8 gene: 5′ C*T*CGAAGGACATCTTGCCGT*G*G 3′, where * represents phosphorothioate linkages. Mis-sense was designed with 4 inversions of C/G or A/T as appropriate at residues 3, 11, 14 and 22, preserving overall G/C content. BLAST searches of both oligonucleotides indicated no significant complementarity to any known gene sequence. 14-day or 7-day osmotic minipumps (for CCI experiments or naïve electrophysiology experiments respectively—Alzet Minipump, models 2002, 2001; Charles River, UK) containing oligonucleotides (1 μg/μl in sterile saline) were connected to canulae inserted under the dura of the spinal cord to level L5/6 and produced a predicted infusion rate of 0.5 μl/h. CCI surgery was performed at the same time as minipump implantation. Sensory tests were carried out to assess the time-course of behavioural sensitisation in animals which had also undergone a CCI injury. Icilin was applied topically rather than intrathecally so as to prevent any interference with the infusion canula. Peripheral nerve recordings and tissue harvesting were carried out after an interval of 4-5 days to allow time for protein knockdown.
Peripheral: Recordings of saphenous (sensory) nerve were made in naïve animals (n=7) to assess the effects of topical icilin on primary afferents. In addition, recordings were carried out on animals which had undergone TRPM8 antisense or mis-sense treatment beginning 4-5 days previously. Rats were anaesthetised (with 0.6 ml 25% urethane/100 g, i.p.) and the saphenous nerve was exposed and dissected from its associated vein and artery. Further dissection under liquid paraffin enabled identification of afferent preparations comprising a small number of fibres. The conduction velocity of single identified afferent fibres was determined using bipolar electrodes and the peripheral stimulus technique^[43]. Following isolation of preparations, icilin (200 μM in water with 0.2% DMF), (−)-menthol (4 mM in 25% ethanol) resiniferatoxin (1 mM in ethanol) or vehicle alone were applied to the hindlimb receptive fields and neuronal responses recorded using the Chart programme (version 3.6). Central: Recordings of spinal dorsal horn neurons were made in CCI animals, as described previously^[39]. Following halothane induction, the jugular vein and trachea were canulated and intravenous anaesthetic delivered: α-chloralose ([…], Fisher) and urethane ([…], Sigma), with small supplementary doses of α-chloralose as required throughout the experiment. Core body temperature was maintained at 37-38° C. by means of a thermostatically controlled heated blanket. The animal was placed in a stereotaxic frame, and the thoracolumbar spinal column was supported using three pairs of swan-necked clamps. A laminectomy was performed at L2-L5, and agar (2% in saline at 37° C.) was delivered over exposed cord to increase mechanical stability. Above the recording region the agar and spinal cord dura were removed and liquid paraffin poured into the pool. Extracellular recordings were made from single multireceptive neurons in laminae I-IV through the centre barrel of a seven-barrelled glass microelectrode filled with 4M NaCl (tip-diameter […], DC resistance 5-8 MΩ). The receptive fields of hair-follicle innervated neurons on the distal hindlimb were identified by an innocuous brush stimulus^[39]. Icilin (200 μM in water with 0.2% DMF) was applied peripherally to the receptive field of individual recorded neurons, and the effect on neuronal response to a rotating brush was recorded and analysed using Spike2 programme (Version 3.2, CED). […]

[5] = mis-sense-treated animals, (−)-menthol 4 mM

CC1CC[C@H](C(C)C)[C@@H](O)C1 (single isomer, unassigned; (+)) [(+)-menthol]
reversal of sensitised responses [1]: produced reversal of sensitised responses

N[C@@]1(C(=O)O)CN[C@@H](C(=O)O)C1 [2R,4R-APDC, (2R, 4R)-4-aminopyrrolidine-2,4-dicarboxylate]
effect on contralateral responses ([2]; intrathecal): no effect on contralateral responses
reversal of mechanical reflex sensitisation ipsilateral to CCI ([2]; intrathecal): 56.0±10.9%
reversal of thermal reflex sensitisation ipsilateral to CCI ([2]; intrathecal): 72.1±6.4%

N[C@]1(C(=O)O)C[C@H](C(=O)O)[C@H](C(=O)O)C1 [ACPT-III, (1R,3R,4S)-1-aminocyclopentane-1,3,4-tricarboxylic acid]
effect on contralateral responses ([2]; intrathecal): no effects contralaterally
reversal of mechanical reflex sensitisation ipsilateral to CCI ([2]; intrathecal): 65.7±11.4%
reversal of thermal reflex sensitisation ipsilateral to CCI ([2]; intrathecal): 83.6±6.3%

N[C@@H](CCP(=O)(O)O)C(=O)O [AP-4, L-(1)-2-amino-4-phosphonobutyric acid]
effect on contralateral responses ([2]; intrathecal): no effects contralaterally
reversal of mechanical reflex sensitisation ipsilateral to CCI ([2]; intrathecal): 60.7±8.0%
reversal of thermal reflex sensitisation ipsilateral to CCI ([2]; intrathecal): 60.8±6.7%

N.N.N.N.N.N.N.N.N.N.N.N.N.N.[Cl-].[Cl-].[Cl-].[Cl-].[Cl-].[Cl-].[O-2].[O-2].[Ru+3].[Ru+3].[Ru+4] [Ruthenium Red]
effect on analgesic effect of intrathecally-injected icilin ([2]; Ruthenium Red 0.25 nmol with icilin 10 nmol): unaffected
effect on sensitising effects of cinnamaldehyde ([2]; co-injection of Ruthenium Red 0.25 nmol with cinnamaldehyde 75 nmol, intrathecal): prevented

COc1ccc(NC(=O)C2CC(C)CCC2C(C)C)cc1 (centres unmarked) [WS-12, 2-isopropyl-5-methyl-cyclohexanecarboxylic acid (4-methoxyphenyl)amide]
analgesia, thermal hyperalgesia (Hargreaves' test) [1]: causes analgesia

C=CCS[S+]([O-])CC=C (centres unmarked) [allicin]
reduction in PWL [3]: 33.2±5.9%
reduction in PWT [3]: 20.7±8.2%

CC(C)[C@H]1CC[C@@H](C)C[C@@H]1O [isomenthol, 1S,2R,5R-menthol]
reversal of sensitised responses [1]: produced reversal of sensitised responses

COc1ccccc1N1CC=C(c2cccc([N+](=O)[O-])c2)NC1=O [methoxy-icilin, 1-(2′-methoxyphenyl)-4-(3″-nitrophenyl)-1,2,3,6-tetrahydropyrimidin-2-one]
analgesia, thermal hyperalgesia (Hargreaves' test) [1]: causes analgesia

C=CCN1CC[C@]23c4c5ccc(O)c4O[C@H]2C(=O)CC[C@@]3(O)[C@H]1C5 [naloxone]
effect on icilin analgesia ([2]; naloxone 25 nmol intrathecal co-administration with icilin): had no effect

C=C(C)[C@]12C[C@@H](C)[C@@]34O[C@](Cc5ccccc5)(O[C@@H]1[C@@H]3C=C(COC(=O)Cc1ccc(O)c(OC)c1)C[C@]1(O)C(=O)C(C)=C[C@@H]41)O2 [resiniferatoxin]
afferents activated out of 28 recorded ([4]; antisense-treated animals): 16
firing frequency after drug ([4]; antisense-treated animals, (−)-menthol 4 mM): 25.9±1.8 Hz
increase in firing frequency ([4]; antisense-treated animals): 6 fold
firing frequency after drug [4, 5]: 24.8±3.1 Hz
increase in firing frequency [4, 5]: 5 fold
